Reference: patent publication US9604974B2, “Compounds as modulator of JAK-STAT pathway, methods and applications thereof” (UNIVERSITY OF MYSORE, priority 2015, dated 2017)

Legend:
phospho-STAT3 (Y705) = assay: Western blot of constitutive phospho-STAT3 (Y705) in HepG2; type: cell-based, human
Experimental: FIG. 2 depicts the suppression of phospho-STAT3 by compound 1 (CIMO) in a dose dependent manner [A]. HepG2 cells (5×10^5/mL) are treated with the indicated concentrations of CIMO for 6 hours, after which whole-cell extracts are prepared and resolved on SDS-PAGE gel, electrotransferred onto nitrocellulose membrane, and probed for phospho-STAT3. The same blot is stripped and reprobed with STAT3 antibody to verify equal protein loading. […] HepG2 cells (5×10^5/mL) are treated with the indicated concentrations of AG490 for about 6 hours, after which Western Blotting is done as described for [A]. [C] depicts the suppression of phospho-STAT3 levels by Compound 1 (CIMO) in a time-dependent manner. HepG2 cells (5×10^5/mL) are treated with 10 μMol/L CIMO for the indicated times, after which Western blotting is done as described for [A]. [D] depicts that compound 1 (CIMO) has no effect on phospho-STAT3 (Ser-727) and STAT3 protein expression. HepG2 cells (5×10^5/mL) are treated with 10 μMol/L CIMO for the indicated times, after which Western Blotting is done as described for [A] and membrane is probed using antibodies against phospho-STAT3 (Ser-727) and STAT3. […] HepG2 cells (1×10^5/mL) are incubated with or without 10 μMol/L CIMO for about 6 hours and then analyzed for the intracellular distribution of STAT3 by immunocytochemistry. The same slides are counterstained for nuclei with Hoechst (50 ng/mL) for about 5 minutes and analyzed under an fluorescencemicroscope. […] HepG2 cells (5×10^5/mL) are treated with 10 μMol/L CIMO, after which whole-cell extracts are prepared, resolved in SDS-PAGE, electrotransferred onto nitrocellulose membrane, and probed with phospho-Src, phospho-JAK1 and phospho-JAK2 antibodies. The same blots are stripped and reprobed with Src, JAK1 and JAK2 antibodies to verify equal protein loading. [G] depicts the suppression of STAT3 DNA binding ability by Compound 1 (CIMO) in HepG2 cells. HepG2 cells are treated with 10 μMol/L CIMO for the indicated time, nuclear extracts are prepared, and 5 μg of the nuclear extract protein is used for ELISA-based DNA-binding assay.
CIMO is tested towards the inhibition of constitutive activation of STAT3 in HepG2 cells by Western Blotting via antibodies recognising phospho-STAT3 (Y705). For detection of phospho-proteins, CIMO treated whole-cell extracts are lysed in lysis buffer [20 mM Tris (pH 7.4), 250 mM NaCl, 2 mM Ethylenediaminetetraacetic acid (pH 8.0), 0.1% Triton-X-100, 0.01 mg/ml aprotinin, 0.005 mg/ml leupeptin, 0.4 mM phenylmethanesulfonylfluoride, and 4 mM NaVO4). Lysates are then spun at 14,000 rpm for about 10 minutes to remove insoluble material and resolved on SDS gel. After electrophoresis, the proteins are electrotransferred to a nitrocellulose membrane, blocked with 5% non-fat milk, and probed with various antibodies (1:1000) overnight at about 4° C. The blot is washed, exposed to HRP-conjugated secondary antibodies for about 1 hour, and finally examined by chemiluminescence (ECL; GE Healthcare, Little Chalfont, Buckinghamshire, UK).

HepG2 cells = assay: MTT anti-proliferative assay, HepG2; type: cell-based; details: Homo sapiens; HepG2 cells after 72 hours, MTT
Experimental: The anti-proliferative activity of Formula I compounds are studied on HepG2 cells using MTT assay. Briefly, the cells (2.5×10^4/ml) are incubated in triplicate in a 96-well plate in the presence or absence of different concentrations of compounds in a final volume of 0.2 ml up to 72 hours at 37° C. Thereafter, 20 μl MTT solution (5 mg/ml in PBS) is added to each well. After 2 hours of incubation at 37° C., 0.1 ml lysis buffer (20% SDS, 50% dimethyl-formamide) is added; incubation is continued overnight at 37° C.; and the optical density (OD) at 570 nm is measured by Tecan plate reader.

Row | Compound | IC50 (HepG2 cells) [µM] | other results
1 | N#C/C(=C/c1ccc(O)c(O)c1)C(=O)NCc1ccccc1 [AG490, reference compound] | – | concentration of maximum inhibition of phospho-STAT3 (phospho-STAT3 (Y705); HepG2, 6 hours): 200 µM; levels of phospho-STAT3 (Y705) (phospho-STAT3 (Y705); HepG2, Western blot, dose and time course): decreases the phosphorylation of STAT3 in a dose-dependent manner
2 | COc1ccc(C2CNC(c3ccc(Br)cc3)OC23CCCCC3)cc1 (stereo not drawn) [Compound 4, 2-(4-Bromophenyl)-5-(4-methoxy-phenyl)-1-oxa-3-aza spiro(5,5) undecane] | 37.1 | –
3 | COc1ccc(C2CNC(c3c(Cl)cccc3Cl)OC23CCCCC3)cc1 (stereo not drawn) [Compound 10, 2-(2,6-dichlorophenyl)-5-(4-methoxy-phenyl)-1-oxa-3-aza spiro(5,5) undecane] | 42.4 | –
4 | COc1ccc(C2CNC(c3ccc4c(c3)CCO4)OC23CCCCC3)cc1 (stereo not drawn) [Compound 11, 2-(2,3-Dihydro-benzofuran-5-yl)-5-(4-methoxy-phenyl)-1-oxa-3-aza-spiro[5.5]undecane] | > 50 | –
5 | COc1ccc(C2CNC(c3ccc(N(C)C)cc3)OC23CCCCC3)cc1 (stereo not drawn) [Compound 13, 2-(4-dimethylaminophenyl)-5-(4-methoxy-phenyl)-1-oxa-3-aza spiro(5,5) undecane] | > 50 | –
6 | sodium pervanadate [reference compound] | – | effect on CIMO-induced inhibition of STAT3 activation (phospho-STAT3 (Y705); HepG2, with 10 μMol/L CIMO, about 4 hours): prevents CIMO-induced inhibition of STAT3 activation

More lines, main results first:

Row | IC50 (HepG2 cells) [µM] | Compound | other results
7 | 38.7 | CCCCc1nc(Cl)c(C2NCC(c3ccc(OC)cc3)C3(CCCCC3)O2)[nH]1 (stereo not drawn) [Compound 2, 2-(2-butyl-5-chloro-3H-imidazol-4-yl)-5-(4-methoxy-phenyl)-1-oxa-3-aza spiro(5,5) undecane] | –
8 | 14.3 | CCCCc1nc(Cl)c(C2NCC(c3ccc(OC)cc3)C3(CCCCC3)O2)n1Cc1ccc(-c2ccccc2C#N)cc1 (stereo not drawn) [Compound 3, 2-(2-butyl-5-chloro-3-(4-(2-cyanophenyl)1-benzyl)-imidazol-4-yl)-5-(4-methoxy-phenyl)-1-oxa-3-aza spiro(5,5) undecane] | –
9 | 9.8 | COc1ccc(C2CNC(c3c(-c4ccccc4)[nH]c4ccccc34)OC23CCCCC3)cc1 (stereo not drawn) [Compound 5, 2-(2-phenylindyl)-5-(4-methoxy-phenyl)-1-oxa-3-aza spiro(5,5) undecane] | –
10 | 28.5 | COc1ccc(C2CNC(c3c[nH]c4ccccc34)OC23CCCCC3)cc1 (stereo not drawn) [Compound 6, 2-(indyl)-5-(4-methoxy-phenyl)-1-oxa-3-aza spiro(5,5) undecane] | –
11 | 15.8 | CCCCc1nc(Cl)c(C2NCC(c3ccc(OC)cc3)C3(CCCCC3)O2)n1Cc1ccc(Oc2ccccc2)cc1 (stereo not drawn) [Compound 7] | –
12 | 28.8 | COc1ccc(C2CNC(c3coc4ccccc4c3=O)OC23CCCCC3)cc1 (stereo not drawn) [Compound 8, 3-[5-(4-Methoxy-phenyl)-1-oxa-3-aza-spiro[5.5]undec-2-yl]-chromen-4-one] | –
13 | > 50 | COc1ccc(C2CNC(c3c(C)[nH]c4ccccc34)OC23CCCCC3)cc1 (stereo not drawn) [Compound 9, 2-(2-methylindyl)-5-(4-methoxy-phenyl)-1-oxa-3-aza spiro(5,5) undecane] | –
14 | > 50 | COc1ccc(C2CN(Cc3ccc(-c4ccccc4C#N)cc3)C(c3c(Cl)cccc3Cl)OC23CCCCC3)cc1 (stereo not drawn) [Compound 12] | –
